Residues, ends and D or L forms follow the SMILES beside them.
Tests used:
[1] = tested on: trained panelists; test: Sweetness time-intensity study of equally sweet solutions, 12 trained panelists; type: in vivo
Description: The data in Table 1 (“STIME”) in the Examples below correlate with the curves shown in this Figure. Imax: maximum intensity recorded. Tmax: first time that maximum intensity was recorded. Tend: last time that a non-zero intensity was recorded. Tdec50: last time that an intensity greater than 50% of Imax was recorded (i.e. the time at which the intensity had decreased to 50% of Imax). Tdec10: same as for Tdec50, but at 10% of Imax. Area: area under the curve. Tdecline: time interval from Tmax to Tdec10. The experiments giving rise to the data in this Figure and Table 1 are described in Example 1 below.
The data in Table 2 (“ATIME”) in the Examples below correlate with the curves shown in this Figure. These curve parameters, as shown in the Table, are defined as per those in FIG. 1. The experiments giving rise to the data in this Figure are described in Example 1 below.
For sweetness time-intensity studies, room temperature equally sweet solutions were presented to 12 trained panelists. The panelists had been screened for general sensory acuity and trained in general methods for sweetener assessment as well as time-intensity methods. […]
The data collected by the computer were read every second, for a total of 180 data points per tasting. Mean panelist response was calculated for each time data point. […]

[2] = tested on: trained evaluators; test: Determination of equally sweet levels in bottled water by a panel of six trained evaluators; type: in vivo; details: for equally sweet level: sweetener alone in bottled water
Excerpt: A panel of six trained evaluators determined equally sweet levels of sucralose, sucralose+DHB, aspartame, and aspartame+DHB, all in bottled water. […] Previous evaluations had shown 15 ppm DHB as optimal for taste alteration in sucralose products. Greater than 50 ppm DHB, in pure water solutions, has a slightly sweet taste and contributes to the total taste of the solution.

For `O=C(O)c1ccc(O)cc1O` [DHB, 2,4-dihydroxybenzoic acid], which “sweetness delivery profile of aspartame” value ([1]; effect of DHB on aspartame) is on record?
Its value is “does not alter”.

What about the “length of time during which sucralose sweetness is perceived” value ([1]; effect of DHB on sucralose) of the same molecule?
The value was “significantly reduces”.

What about the “DHB level that has a slightly sweet taste and contributes to the total taste” value ([2]; pure water solutions) of the same molecule?
The value was “Greater than 50 ppm”.

And the “DHB level optimal for taste alteration” value ([2]; sucralose products, previous evaluations)?
The value was 15 ppm.

For `COC(=O)[C@H](Cc1ccccc1)NC(=O)[C@@H](N)CC(=O)O` [Sample 1, N-L-α-aspartyl-L-phenylalanine methyl ester, reference compound] (H-Asp-Phe-OMe), which equally sweet level [2] is on record?
Its equally sweet level is 550 ppm.

For `OC[C@H]1O[C@H](O[C@]2(CCl)O[C@H](CCl)[C@@H](O)[C@@H]2O)[C@H](O)[C@@H](O)[C@H]1Cl` [Sample 1, 1,6-dichloro-1,6-dideoxy-β-D-fructofuranosyl-4-chloro-4-deoxy-α-D-galactopyranoside, reference compound], which equally sweet level [2] is on record?
The equally sweet level was 200 ppm.

Source: patent US6998144B2, “Method of improving sweetness delivery of sucralose” (McNeil-PPC, Inc., priority 1998, dated 2006)
